Data from US8029980B2, “Identification and use of agents that modulate oncogenic transcription agent activity” (The Board of Trustees of the University of Illinois, priority 2006, dated 2011).
Entries after “also recorded” stand apart in the source; their conditions may differ.

What was measured:
FoxM1 = biological target: T1, FoxM1 (Homo sapiens, UniProt Q08050); experiment: FoxM1-responsive firefly luciferase reporter assay in C3-Luc cells; format: cell-based; settings: C3-Luc cells, 1 μg/mL doxycycline (60-fold induction), 5 μM compound, 24 hrs
T1 construct: expressed in transfected cells; host or cells: U2OS clone C3 / C3-Luc
T1 sequence (Q08050 1-748 isoform Q08050-2): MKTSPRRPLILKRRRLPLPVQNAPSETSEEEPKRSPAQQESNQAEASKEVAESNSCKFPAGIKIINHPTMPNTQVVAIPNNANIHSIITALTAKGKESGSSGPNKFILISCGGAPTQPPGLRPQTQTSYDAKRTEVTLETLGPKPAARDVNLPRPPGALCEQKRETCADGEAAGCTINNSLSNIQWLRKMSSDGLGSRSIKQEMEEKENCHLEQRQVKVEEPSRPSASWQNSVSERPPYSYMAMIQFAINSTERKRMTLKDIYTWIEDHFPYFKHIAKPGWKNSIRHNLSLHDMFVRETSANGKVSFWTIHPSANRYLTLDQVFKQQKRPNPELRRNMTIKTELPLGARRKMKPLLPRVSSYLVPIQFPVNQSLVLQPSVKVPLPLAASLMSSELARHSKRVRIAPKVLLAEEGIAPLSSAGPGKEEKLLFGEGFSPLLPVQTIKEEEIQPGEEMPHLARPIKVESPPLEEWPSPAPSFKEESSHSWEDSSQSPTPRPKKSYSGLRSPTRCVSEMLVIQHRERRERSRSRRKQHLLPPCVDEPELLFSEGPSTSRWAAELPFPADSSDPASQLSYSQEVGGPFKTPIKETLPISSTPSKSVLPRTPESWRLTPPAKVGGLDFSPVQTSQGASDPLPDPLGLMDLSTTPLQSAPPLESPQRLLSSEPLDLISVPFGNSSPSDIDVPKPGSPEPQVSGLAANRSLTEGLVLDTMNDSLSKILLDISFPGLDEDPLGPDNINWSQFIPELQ
Method: FIG. 6. Thiostrepton and Siomycin A both inhibit FoxM1 transcriptional activity. […] The next day, the luciferase activity was measured with the Dual-Luciferase reporter assay system (E1910; Promega) according to the manufacturer's instructions.
The development of U2OS clone C3 cell line with doxycyclin inducible FoxM1-GFP fusion protein has been described before (17). This cell line was transfected with a plasmid expressing firefly luciferase under the control of 6× FoxM1 responsive (FoxRE) promoter (17), along with pcDNA3.1 (Invitrogen, Carlsbad, Calif.) plasmid that expresses neomycin phospho-transferase. […] This clone was further transfected with pRL-CMV (Promega) that expresses renilla luciferase along with pLPCX-puro (Clontech), and the cells were selected in 2 μg/ml puromycin. This cell line which expresses FoxM1-dependent firefly luciferase and constitutive renilla luciferase was named as C3-Luc and used for the screening of compound libraries (Challenge set and Diversity set) from the National Cancer Institute.
For high-throughput screening, the C3-Luc cells were grown in 96-well plates and treated overnight with a combination of 1 μg/ml doxycycline and 10 μM of compounds from the library. Next day, the firefly and renilla luciferase activities were measured with the Dual Glo system (E2940; Promega).
For the other luciferase assay experiments, the cells were treated as indicated in the FIG. 1 legend and the luciferase activity was measured using the Dual Luciferase reporter assay system (E1910; Promega) according to the manufacturer's instructions.

[1] = test system: Breast cancer cell lines BT-474, MDA-MB-231, T-47D and ZR-75-1; experiment: FoxM1 and cleaved caspase-3 immunoblot in breast cancer cell lines; format: cell-based, human; settings: 5 μM, 48 hrs
Method: FIG. 7. […] Breast cancer cell lines BT-474, MDA-MB-231, T-47D and ZR-75-1 were treated with 5 μM Siomycin and thiostrepton, respectively, for 48 hrs and the cell lysates were analyzed for the levels of FoxM1 and cleaved caspase-3 by immunoblotting.
(§1) Immunoblotting was performed as described (18-20) with antibodies specific for p21 (556431; BD Pharmingen), survivin (sc-10811; Santa Cruz), cleaved caspase-3 (9664; Cell Signaling), and β-actin (A5441; Sigma) antibodies. Immunoblot for FoxM1 was done using the previously generated rabbit antisera (2), and phospho-FoxM1 was detected using the MPM2 monoclonal antibody (Upstate Biotechnology) which recognizes the phosphorylated protein sequence phosphoserine/phosphothreonine-proline.

[2] = test system: Liver cancer cell lines Huh7, Hep-3B and SK-Hep; experiment: FoxM1 and cleaved caspase-3 immunoblot in liver cancer cell lines; format: cell-based, human; settings: 10 μM, 48 hrs
Method: FIG. 9. […] Liver cancer cell lines Huh7, Hep-3B and SK-Hep were treated with 10 μM Siomycin A and thiostrepton, respectively, for 48 hrs, and the cell lysates were analyzed for the levels of FoxM1 and cleaved caspase-3 by immunoblotting.
as §1
First, we treated liver cancer cell lines Huh7, Hep-3B and SK-Hep that have deleted or mutant p53 with these compounds for 48 hrs, and the cell lysates were analyzed for the levels of FoxM1 and cleaved caspase-3 by immunoblotting.

[3] = test system: Leukemia cell lines CEM, HL60 and U937; experiment: FoxM1 and cleaved caspase-3 immunoblot in leukemia cell lines; format: cell-based, human; settings: 5 μM, 48 hrs
Method: FIG. 10. […] Leukemia cell lines CEM, HL60 and U937 were treated with 5 μM Siomycin A and thiostrepton, respectively, for 48 hrs and the cell lysates were analyzed for the levels of FoxM1 and cleaved caspase-3 by immunoblotting.
as §1
Next we treated leukemia cell lines with mutant p53 CEM, HL60 and U937 with 5 μM of these compounds for 48 hrs and the cell lysates were analyzed for the levels of FoxM1 and cleaved caspase-3 by immunoblotting.

[4] = test system: NB7 and NB7-casp8 neuroblastoma cells; experiment: FoxM1 and cleaved caspase-3 immunoblot in neuroblastoma cells; format: cell-based; settings: 24 hrs
Method: FIG. 11. […] Cells were treated with Siomycin A, thiostrepton or DMSO, harvested 24 hrs later and the lysates were used to determine proteins levels by immunoblotting with antibodies specific for FoxM1, cleaved caspase-3 and β-actin (AS441, Sigma).

`C=C(NC(=O)C(=C)NC(=O)c1csc(C2=N[C@@H]3c4csc(n4)[C@H]4NC(=O)c5csc(n5)[C@H]([C@](C)(O)[C@@H](C)O)NC(=O)[C@H]5CSC(=N5)/C(=C/C)NC(=O)[C@H]([C@@H](C)O)NC(=O)c5csc(n5)[C@]3(CC2)NC(=O)[C@H](C)NC(=O)C(=C)NC(=O)[C@H](C)NC(=O)[C@H]([C@@H](C)CC)N[C@@H]2C=Cc3c([C@H](C)O)cc(nc3[C@H]2O)C(=O)O[C@@H]4C)n1)C(N)=O` [thiostrepton] was tested, and the “relative firefly luciferase activity (FoxM1 transcriptional activity)” value (FoxM1) was “efficiently reduced the value to basal levels”, the FoxM1 expression [1] was “stronger inhibitor of FoxM1; also recorded: inhibit FoxM1 expression” and the “apoptosis (cleaved caspase-3)” value [1] was “more efficient inducer of apoptosis than Siomycin A; also recorded: induce apoptosis”. For the same compound, the FoxM1 protein expression [2] was “repress FoxM1 protein expression”, the “apoptosis (cleaved caspase-3)” value [2] was “induce apoptosis” and the FoxM1 expression [3] was “inhibit FoxM1 expression”. The “apoptosis (cleaved caspase-3)” value [3] was “induce apoptosis”, the “apoptosis (cleaved caspase-3)” value ([4]; NB7 and NB7 with reconstituted caspase-8) was “induce apoptosis in these neuroblastoma cells independently from caspase-8” and the FoxM1 protein expression ([4]; immunoblot) was “inhibit FoxM1 protein expression”.
